Data set [1] has as its system cytotoxicity of the novel compound. Format: cell-based. To be noted: in words. As to the method: (§1) At a 5 μM concentration of this compound the addition of 25 μM and 100 μM of 2'-deoxycytidine prevented the cytotoxicity of the novel compound against L1210 cells by 35% and 100% respectively.
Data set [2] concerns L1210 cells. In kind it is cell-based, mouse. As for the experimental part:
(§2) Mouse L1210 and S-180 cells were maintained as suspension cultures in Fischer's medium supplemented with 10% horse serum at 37° C. in a humidified atmosphere of 5% CO2 -95% air. Under these conditions the generation time for L1210 and S-180 cells is approximately 12 and 18 hours, respectively. The test compound at the given concentration, was added to L1210 and S-180 cells (2×10^4 cells/mL) which were in their exponential phase of growth. The increase in cell number of the drug-free culture (control), as well as that of the cultures supplemented with the test compound, was determined after 24, 48 and 72 hours of growth.
as §1

Data set [3] deals with S-180 cells. In kind it is cell-based, mouse. To be noted: 25 μM 2'-deoxycytidine added to 20 μM of the new compound. As to the method: as §2, §1
The test system of data set [4] is S-180 cells. In words: Inhibition of replication of S-180 cells in vitro. In kind it is cell-based. The note with it: Mus musculus, mean cell counts after 72 hours, triplicate, read-out: ID50 (S-180). As for the experimental part:
as §2
(§3) 3'-Amino-2',3'-dideoxycytidine was also screened against S-180 neoplastic cells in vitro. The ID50 values were estimated from dose-response curves compiled from at least two independent experiments and represent the drug concentration required to inhibit replication of L1210 or S-180 neoplastic cells by 50%.
(§4) ID50 values were determined from plots of mean cell counts after 72
(§5) hours. Assays were carried out in triplicate with appropriate controls.

In data set [5] the test system is L1210 cells. In words: Inhibition of replication of L1210 cells in vitro. In kind it is cell-based. To be noted: Mus musculus, mean cell counts after 72 hours, triplicate, read-out: ID50 (L1210). As to the method: as §2, §3, §4, §5
In data set [6] the test system is L1210 leukemia. Description: L1210 leukemia in CDF1 mice, survival time (T/C). To be noted: 160 mg/kg i.p. twice a day for 3 days, starting 24 hours post inoculation of 1×10^5 L1210 cells. In kind it is in vivo, mouse (CDF1 female mice). As to the method: Transplantation of L1210 ascites cells was carried out by withdrawing peritoneal fluid from donor CDF1 mice bearing 7-day growths. The suspension was centrifuged for 2 minutes (1600 g), the supernatant peritoneal fluid was decanted, and a 10-fold dilution with isotonic saline was made. The cell number was determined with a Coulter particle counter and the cell population was adjusted to 10^6 cells/mL. One-tenth mL of the resulting cell suspension (containing approximately 10^5 cells) was injected intraperitoneally into each animal. The drug was administered by intraperitoneal injection, beginning 24 hours after tumor implantation,twice daily for 3 consecutive days. The test compound was injected as a solution in isotonic saline. The drug was administered intraperitoneally in a volume of 0.25 mL. […] Mice were weighed during the course of the experiments, and the percentage change in body weight from onset to termination of therapy was used as an indication of drug toxicity. Determination of the sensitivity of ascitic neoplasms to this agent were based on the prolongation of survival time afforded by the drug treatments. The median survival time and the ratio of survival time for treated (T)/control (C) was calculated.
3'-Amino-2',3'-dideoxycytidine was screened against CDF1 female mice bearing L1210 leukemia according to the above protocol. Three groups of mice with 4 mice in each group were inoculated with 1×10^5 L1210 murine leukemia cells. Starting 24 hours post inoculation, the first group of mice was injected with saline as the vehicle control, the second group with 160 mg/kg of the test compound in saline twice a day, for 3 days. All control mice died by day 9. In the group treated with the test compound, one mouse died at day 21, the second at day 24, the third at day 29 and the last one at day 31, yielding a T/C×100 value of 283.

A short description of data set [7]: Water solubility of the new compound. Format: physicochemical. To be noted: at 23° C. As for the experimental part: The new compound has excellent water solubility (~0.5 g/mL at 23° C.) and readily forms non-toxic acid addition salts with a variety of pharmacologically acceptable organic and inorganic salt-formingreagents. Thus, acid addition salts formed by admixture of the organic free base with up to two equivalents of an acid, suitably in a neutral solvent, are formed with such acids as sulfuric, phosphoric, hydrochloric,hydrobromic, sulfamic, citric, lactic, malic, succinic, tartaric, acetic, benzoic, gluconic, ascorbic, and the like. For purposes of this invention, the free base is equivalent to the non-toxic acid addition salts. The acid addition salts are, in general, crystalline solids, very soluble in water, relatively soluble in methanol and ethanol but relatively insoluble in non-polar organic solvents such as diethyl ether, benzene, toluene, and the like.

The mark [8] stands for this setting: 4 mice, all controls died by day 9.

Values after ≈ are worked out from the molar mass of the structure shown. Read-outs that look alike come from different tables or passages of the source.

Regarding `Nc1ccn([C@H]2C[C@H](O)[C@@H](CO)O2)c(=O)n1` [2'-deoxycytidine], the “prevention of the cytotoxicity of the novel compound” value in data set [1] is recorded as “uniquely prevented”. In addition, the “prevention of the cytotoxicity of the novel compound against L1210 cells” value in data set [2] (25 μM 2'-deoxycytidine added to 5 μM of the novel compound) was 35%; in data set [2] (100 μM 2'-deoxycytidine added to 5 μM of the novel compound), 100%. Further, in data set [2] (dose dependence, in words), the “preventive effect on the cytotoxicity of the novel compound against L1210 cells” value was “dose dependent”. Further, the “prevention of the cytotoxicity of the novel compound against S-180 cells” value in data set [3] came to 27%.

Regarding `Nc1ccn([C@H]2C[C@H](N)[C@@H](CO)O2)c(=O)n1` [3'-amino-2',3'-dideoxycytidine, 3'-Amino-2',3'-dideoxycytidine], in data set [4], the IC50 stood at 4 µM. In data set [5], the IC50 is 700 nM. Further, the “T/C×100 (survival time treated/control)” value in data set [6] was determined as 283. Moreover, in data set [6] (setting [8]), the “day of death, first mouse” value was 21 days; the “day of death, last mouse” value is 31 days; the “day of death, second mouse” value was 24 days; the “day of death, third mouse” value was 29 days. In data set [7], the solubility was roughly 500 mg/mL (≈ 2210 mM).

As usually defined, the solubility is the concentration that dissolves in the medium under given conditions.

The values are drawn from patent US4604382A, “3'-amino-2',3'-dideoxycytidine and the pharmacologically acceptable salts thereof” (Research Corporation, priority 1983, dated 1986).
